Experimental data from patent US7615639B2, “1-pyridyl-benzofuro[3,2-b]pyridin-2(1H)-ones” (Tibotec Pharmaceuticals, Ltd., priority 2004, dated 2009).

Tested on: HIV
Assay: Cellular assay: anti-viral activity in HIV-infected MT4 cells (MTT read-out)
Format: cell-based
Settings: Human immunodeficiency virus 1, 120 h, five days incubation, MTT cell viability, negative logarithm of EC50 (protection of 50% of cells from cytopathogenic effect of the virus)
Procedure: The compounds of the present invention were examined for anti-viral activity in a cellular assay, which was performed according to the following procedure.
HIV- or mock-infected MT4 cells were incubated for five days in the presence of various concentrations of the inhibitor. At the end of the incubation period, the replicating virus in the control cultures has killed all HIV-infected cells in the absence of any inhibitor. Cell viability was determined by measuring the concentration of MTT, a yellow, water soluble tetrazolium dye that is converted to a purple, water insoluble formazan in the mitochondria of living cells only. Upon solubilization of the resulting formazan crystals with isopropanol, the absorbance of the solution was monitored at 540 nm. The values correlate directly to the number of living cells remaining in the culture at the completion of the five day incubation. The inhibitory activity of the compound was monitored on the virus-infected cells and was expressed as EC50 and EC90. These values represent the amount of the compound required to protect 50% and 90%, respectively, of the cells from the cytopathogenic effect of the virus. The toxicity of the compound was measured on the mock-infected cells and was expressed as CC50, which represents the concentration of compound required to inhibit the growth of the cells by 50%. The selectivity index (SI) (ratio CC50/EC50) is an indication of the selectivity of the anti-HIV activity of the inhibitor. Wherever results are reported as e.g. pEC50 or pCC50 values, the result is expressed as the negative logarithm of the result expressed as EC50 or CC50 respectively.

| SMILES | EC50 [µM] |
| --- | --- |
| Cn1c2ccccc2c2c1ccc(=O)n2-c1cc2ccccc2s1 [Compound 6] | 12.6 |
| Cn1c2ccccc2c2c1cc(C#N)c(=O)n2-c1ccc(Cl)nc1 [Compound 7, 1-(6-Chloropyridin-3-yl)-5-methyl-2-oxo-2,5-dihydro-1H-pyrido[3,2-b]indole-3-carbonitrile] | 0.794 |
| Cn1c2ccccc2c2c1cc(C#N)c(=O)n2-c1cnc2ccccc2c1 [Compound 9] | 2.51 |
| Cn1c2ccccc2c2c1cc(C#N)c(=O)n2-c1cncnc1 [Compound 11] | 20 |
| Cn1c2ccccc2c2c1cc(C#N)c(=O)n2-c1ccc(C#N)nc1 [Compound 14] | 10 |
| Cn1ccc2cc(-n3c(=O)ccc4c3c3ccccc3n4C)ccc21 [Compound 17] | 6.31 |
| N#Cc1cc2[nH]c3ccccc3c2n(-c2ccnc(Cl)c2)c1=O [Compound 19] | 15.8 |
| Cn1c2ccccc2c2c1cc(C#N)c(=O)n2-c1ccnc(C(N)=O)c1 [Compound 20] | 5.01 |
| Cn1c2ccccc2c2c1cc(C#N)c(=O)n2-c1ccc2nc(C(F)(F)F)cn2c1 [Compound 21] | 12.6 |
| N#Cc1cc2[nH]c3ccccc3c2n(-c2ccc(Cl)nc2)c1=O [Compound 26] | 2.51 |
| Cn1c2ccccc2c2c1ccc(=O)n2-c1cnc2ccccc2c1 [Compound 27] | 6.31 |
| Cn1c2ccccc2c2c1cc(C#N)c(=O)n2-c1ccc(Br)nc1 [Compound 28] | 3.16 |
| Cc1ccc(-n2c(=O)c(C#N)cc3c2c2ccccc2n3C)cn1 [Compound 32, 5-Methyl-1-(6-methyl-pyridin-3-yl)-2-oxo-2,5-dihydro-1H-pyrido[3,2-b]indole-3-carbonitrile] | 1 |
| Cc1cc(-n2c(=O)c(C#N)cc3c2c2ccccc2n3C)cnc1Cl [Compound 34, 1-(6-Chloro-5-methyl-pyridin-3-yl)-5-methyl-2-oxo-2,5-dihydro-1H-pyrido[3,2-b]-indole-3-carbonitrile] | 0.794 |
| COc1ccc(-n2c(=O)c(C#N)cc3c2c2ccccc2n3C)cn1 [Compound 35] | 3.16 |
| Cn1c2ccccc2c2c1cc(C#N)c(=O)n2-c1ccc(F)nc1 [Compound 36] | 7.94 |
| COc1ncc(-n2c(=O)c(C#N)cc3c2c2ccccc2n3C)cn1 [Compound 37] | 2.51 |
| Cn1c2ccc(O)cc2c2c1cc(C#N)c(=O)n2-c1ccc(Cl)nc1 [Compound 43, 1-(6-Chloro-pyridin-3-yl)-8-hydroxy-5-methyl-2-oxo-2,5-dihydro-1H-pyrido[3,2-b]-indole-3-carbonitrile] | 3.98 |
